Measurements as given in US20050070554A1, “Substituted heterocyclic compounds and methods of use” (Amgen Inc., priority 2003, published 2005).

What follows are molecules tested against T1, LCK (Homo sapiens, UniProt P06239) (assay: LCK-Homogeneous Time Resolved Fluorescent (HTRF) Kinase Assay). Conditions: not given.
T1 construct: LCK KD GST (225-509); GST
Type: biochemical
Experimental: LCK-Homogeneous Time Resolved Fluorescent (HTRF) Kinase Assay:
The LCK HTRF assay begins with LCK in the presence of ATP phosphorylating the biotinylated peptide Gastrin. The reaction incubates for 90 min. To quench the assay detection reagents are added which both stop the reaction by diluting out the enzyme and chelating the metals due to the presence of EDTA. Once the detection reagents are added the assay incubates for 30 min to allow for equilibration of the detection reagents.
Buffer conditions are as follows: 50 mM HEPES pH 7.5, 50 mM NaCl, 20 mM MgCl, 5 mM MnCl, 2 mM DTT, 0.05% BSA.
The assay is quenched and stopped with 160 μL of detection reagent. Detection reagents are as follows: Buffer made of 50 mM Tris, pH 7.5, 100 mM NaCl, 3 mM EDTA, 0.05% BSA, 0.1% Tween20.
The assay plate is read in either a Discovery or a RubyStar.

T1 sequence (P06239 225-509): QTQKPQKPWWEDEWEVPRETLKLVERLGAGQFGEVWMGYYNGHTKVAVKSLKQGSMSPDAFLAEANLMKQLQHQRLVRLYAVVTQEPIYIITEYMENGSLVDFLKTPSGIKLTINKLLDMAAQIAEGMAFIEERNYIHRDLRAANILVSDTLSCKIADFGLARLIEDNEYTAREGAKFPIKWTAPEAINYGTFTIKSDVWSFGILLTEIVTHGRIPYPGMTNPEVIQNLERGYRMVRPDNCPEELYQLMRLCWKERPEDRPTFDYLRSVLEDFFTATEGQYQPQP

IC50, < 1000 nM:
Cc1cccc(C)c1-n1c(=O)c2cnc(Nc3ccc(OCCCN4CCCCC4)cc3)nc2n2c3ccccc3nc12 [No. 32, 6-(2,6-dimethylphenyl)-2-((4-((3-(1-piperidinyl)-propyl)oxy)phenyl)amino)pyrimido[5′,4′:5,6]-pyrimido[1,2-a]benzimidazol-5(6H)-one]
Cc1cccc(C)c1-n1c(=O)c2cnc(Nc3ccc(OCCN4CCN(C)CC4)c(F)c3)nc2n2c3ccccc3nc12 [No. 38, 6-(2,6-dimethylphenyl)-2-((3-fluoro-4-((2-(4-methyl-1-piperazinyl)ethyl)oxy)phenyl)amino)-pyrimido[5′,4′:5,6]pyrimido[1,2-a]benzimidazol-5(6H)-one]

Same assay, conditions: read-out: activity in the LCK-HTRF Kinase Assay

IC50, < 1000 nM:
Cc1cccc(C)c1-n1c(=O)c2cnc(Nc3ccc(OCCN4CCOCC4)cc3)nc2n2c3ccccc3nc12 [No. 29, 6-(2,6-dimethylphenyl)-2-((4-((2-(4-morpholinyl)-ethyl)oxy)phenyl)amino)pyrimido[5′,4′:5,6]-pyrimido[1,2-a]benzimidazol-5(6H)-one]
COc1cc(Nc2ncc3c(=O)n(-c4c(C)cccc4C)c4nc5ccccc5n4c3n2)cc(OC)c1OCCN1CCOCC1 [No. 30, 2-((3,5-bis(methyloxy)-4-((2-(4-morpholinyl)ethyl)-oxy)phenyl)amino)-6-(2,6-dimethylphenyl)-pyrimido[5′,4′:5,6]pyrimido[1,2-a]benzimidazol-5(6H)-one]
Cc1cccc(C)c1-n1c(=O)c2cnc(Nc3ccc(N4CCN(C(C)C)CC4)cc3)nc2n2c3ccccc3nc12 [No. 31, 6-(2,6-dimethylphenyl)-2-((4-(4-(1-methylethyl)-1-piperazinyl)phenyl)amino)pyrimido[5′,4′:5,6]-pyrimido[1,2-a]benzimidazol-5(6H)-one]
CNCCOc1ccc(Nc2ncc3c(=O)n(-c4c(C)cccc4C)c4nc5ccccc5n4c3n2)cc1 [No. 33, 6-(2,6-dimethylphenyl)-2-((4-((2-(methylamino)-ethyl)oxy)phenyl)amino)pyrimido[5′,4′:5,6]-pyrimido[1,2-a]benzimidazol-5(6H)-one]
Cc1cccc(C)c1-n1c(=O)c2cnc(Nc3ccc(OCCN4CCN(C)CC4)cc3)nc2n2c3ccccc3nc12 [No. 34, 6-(2,6-dimethylphenyl)-2-((4-((2-(4-methyl-1-piperazinyl)ethyl)oxy)phenyl)amino)-pyrimido[5′,4′:5,6]pyrimido[1,2-a]benzimidazol-5(6H)-one]
Cc1cccc(C)c1-n1c(=O)c2cnc(Nc3ccc(OCCN4CCCCC4)c(F)c3)nc2n2c3ccccc3nc12 [No. 35, 6-(2,6-dimethylphenyl)-2-((3-fluoro-4-((2-(1-piperidinyl)ethyl)oxy)phenyl)amino)-pyrimido[5′,4′:5,6]pyrimido[1,2-a]benzimidazol-5(6H)-one]
Cc1cccc(C)c1-n1c(=O)c2cnc(Nc3cccc(OCCCN4CCCCC4)c3)nc2n2c3ccccc3nc12 [No. 36, 6-(2,6-dimethylphenyl)-2-((3-((3-(1-piperidinyl)-propyl)oxy)phenyl)amino)pyrimido[5′,4′:5,6]-pyrimido[1,2-a]benzimidazol-5(6H)-one]
COc1cc(Nc2ncc3c(=O)n(-c4c(C)cccc4C)c4nc5ccccc5n4c3n2)ccc1N1CCNCC1 [No. 37, 6-(2,6-dimethylphenyl)-2-((3-(methyloxy)-4-(1-piperazinyl)phenyl)amino)pyrimido[5′,4′:5,6]-pyrimido[1,2-a]benzimidazol-5(6H)-one]
Cc1cccc(C)c1-n1c(=O)c2cnc(Nc3cccc(OCCCN4CCN(C)CC4)c3)nc2n2c3ccccc3nc12 [No. 39, 6-(2,6-dimethylphenyl)-2-((3-((3-(4-methyl-1-piperazinyl)propyl)oxy)phenyl)amino)-pyrimido[5′,4′:5,6]pyrimido[1,2-a]benzimidazol-5(6H)-one]
